This note sets out measurements from ChEMBL document CHEMBL3045175, “Synthesis and Neuromuscular Blocking Activity of 16-Piperidino Epiandrosterone Derivatives” (Med Chem Res, 2005).

Test [1] is filed under the species Gallus gallus. In words: Binding affinity to acetylcholine receptor in isolated Gallus gallus (chicken) biventar cervicis muscle assessed as reduction of twitch response to carbachol.
The species entered for test [2] is Gallus gallus. The test is described as follows: Binding affinity to acetylcholine receptor in isolated Gallus gallus (chicken) biventar cervicis muscle assessed as reduction of twitch response to carbachol at 5 uM up to 10 min.
Test [3] can be described thus: (§1) Inhibition of Electrophorus electricus (electric eel) acetylcholinesterase.
The subject of another test is Electrophorus electricus. The description is as §1.
Test [4] is filed under the species Gallus gallus. In words: Binding affinity to acetylcholine receptor in isolated Gallus gallus (chicken) biventar cervicis muscle assessed as reduction of twitch response to carbachol after washout.
For test [5], the species on record is Gallus gallus. The test is described as follows: Binding affinity to acetylcholine receptor in isolated Gallus gallus (chicken) biventar cervicis muscle assessed as reduction of twitch response to carbachol in presence of neostigmine.
For test [6], the species on record is Gallus gallus. The test is described as follows: Binding affinity to acetylcholine receptor in isolated Gallus gallus (chicken) biventar cervicis muscle assessed as reduction of twitch response to carbachol at 1 uM up to 10 min.

Calls of active or inactive are those of the source. The rule behind the calls is not given here.

As to `C[C@]12CC[C@H](N3CCCC3)C[C@@H]1CC[C@@H]1[C@@H]2CC[C@]2(C)[C@@H](O)[C@@H](N3CCCCC3)C[C@@H]12`, in the test filed under Gallus gallus [1], the K came out at 0.9 µM. For the same molecule, the outcome in the test filed under Gallus gallus [2] was Active. The same molecule had a Ki in test [3] of 620 nM. Also, the inhibition result with Electrophorus electricus was “Dose-dependent effect”. Besides, the result in the test filed under Gallus gallus [4] and in the test listed under Gallus gallus [5] was inactive.
Regarding `CC(=O)O[C@H]1[C@@H](N2CCCCC2)C[C@H]2[C@@H]3CC[C@H]4C[C@@H](N5CCCC5)CC[C@]4(C)[C@H]3CC[C@@]21C`, the K in the test listed under Gallus gallus [1] was found to be 0.2 µM. For the same molecule, the outcome in the test listed under Gallus gallus [6] was Active. In addition, in test [3], the Ki stood at 980 nM. For the same molecule, in the test with Electrophorus electricus, the inhibition result was “Dose-dependent effect”. In addition, the outcome in the test filed under Gallus gallus [4] and in the test filed under Gallus gallus [5] was inactive.

The term Ki denotes the dissociation constant of the complex between target and ligand, obtained from inhibition or displacement. A lower Ki goes with tighter binding.
